Experimental data from patent US8362065B2, “Carbazole carboxamide compounds useful as kinase inhibitors” (Bristol-Myers Squibb Company, priority 2008, dated 2013).

Tests used:
human recombinant Btk = target: T1, human recombinant Btk (Homo sapiens, UniProt Q06187); test: Human Recombinant Btk Enzyme Assay; format: biochemical; settings: human recombinant Btk 1 nM, ATP 20 μM, 60 min at room temperature; read-out: IC50 for Inhibition of Btk
T1 construct: purchased Invitrogen Corporation

Ramos RA1 B cells = test: Ramos FLIPR Assay; format: cell-based; settings: goat anti-human IgM 2.5 μg/mL, peak intracellular calcium, read-out: IC50 for Inhibition of Ramos FLIPR assay
[1] = test system: anti-KLH IgG response in BALB/c mice; test: KLH Antigen Challenge and Antibody Measurement; format: in vivo, mouse; settings: female BALB/c mice, serum 14 days post-immunization
Experimental: KLH Antigen Challenge and Antibody Measurement
Female BALB/c mice (6-8 weeks old) were immunized intraperitoneally (IP) with 250 μg keyhole limit hemocyanin (KLH) (Pierce, Rockford, Ill.) in phosphate-buffered saline (PBS). Mice in appropriate groups were dosed as indicated. Blood was collected 14 days post-immunization, serum was separated and analyzed for anti-KLH IgG titers by ELISA. Briefly, 96 well plates were coated with KLH in PBS, blocked, and serial dilutions of test serum samples were added.

T1 sequence (Q06187 whole entry): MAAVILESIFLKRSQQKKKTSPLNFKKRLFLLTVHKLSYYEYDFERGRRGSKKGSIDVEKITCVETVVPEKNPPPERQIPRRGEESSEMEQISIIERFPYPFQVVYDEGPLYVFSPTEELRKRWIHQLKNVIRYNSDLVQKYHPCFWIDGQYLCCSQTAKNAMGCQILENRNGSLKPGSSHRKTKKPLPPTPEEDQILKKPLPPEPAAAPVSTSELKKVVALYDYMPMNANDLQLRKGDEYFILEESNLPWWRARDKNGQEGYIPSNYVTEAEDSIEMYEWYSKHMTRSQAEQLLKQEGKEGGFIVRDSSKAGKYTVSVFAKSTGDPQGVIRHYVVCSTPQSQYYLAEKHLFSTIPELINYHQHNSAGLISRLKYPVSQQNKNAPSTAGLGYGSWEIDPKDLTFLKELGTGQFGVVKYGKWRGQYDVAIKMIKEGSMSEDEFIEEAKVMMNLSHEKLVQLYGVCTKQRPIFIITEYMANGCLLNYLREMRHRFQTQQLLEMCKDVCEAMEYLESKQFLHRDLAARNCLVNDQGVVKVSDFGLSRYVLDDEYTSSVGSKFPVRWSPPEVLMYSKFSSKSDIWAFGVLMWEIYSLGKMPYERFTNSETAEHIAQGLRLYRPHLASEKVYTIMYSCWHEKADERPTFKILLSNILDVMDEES

Row | Structure (SMILES) | IC50 (human recombinant Btk) [nM] | IC50 (Ramos RA1 B cells) [nM] | inhibited the anti-KLH IgG response ([1]; 10 mg/kg twice daily) [%] | inhibited the anti-KLH IgG response ([1]; 30 mg/kg twice daily) [%]
1 | Cc1c(-c2ccc(C(N)=O)c3[nH]c4cc(C(O)CO)ccc4c23)cccc1-n1cnc2ccc(Cl)cc2c1=O (stereo not shown) [Example 70-14] | 0.9 | 14 |  | 
2 | COc1ccc2c(c1)CN(c1cccc(-c3ccc(C(N)=O)c4[nH]c5cc(C(C)(C)O)ccc5c34)c1C)C2=O [Example 76-32, 7-(2-hydroxypropan-2-yl)-4-(3-(5-methoxy-1-oxoisoindolin-2-yl)-2-methylphenyl)-9H-carbazole-1-carboxamide] | 3.2 | 38 |  | 
3 | Cc1c(-c2ccc(C(N)=O)c3[nH]c4cc(C(C)(C)O)ccc4c23)cccc1-n1cnc2c(F)cccc2c1=O [Example 76-51] | 1.4 | 17 |  | 

Continued by falling IC50 (human recombinant Btk), values first:

Row | IC50 (human recombinant Btk) [nM] | IC50 (Ramos RA1 B cells) [nM] | Structure (SMILES) | inhibited the anti-KLH IgG response ([1]; 10 mg/kg twice daily) [%] | inhibited the anti-KLH IgG response ([1]; 30 mg/kg twice daily) [%]
4 | 2.4 | 48 | Cc1c(-c2ccc(C(N)=O)c3[nH]c4cc(C(C)(C)O)ccc4c23)cccc1N1Cc2ccc(F)cc2C1=O [Example 76-15] | 29 | 56
5 | 1.9 | 17 | COC1=CC(=O)N(c2cccc(-c3ccc(C(N)=O)c4[nH]c5cc(C(C)(C)O)ccc5c34)c2C)C1 [Example 82-1, 7-(2-hydroxypropan-2-yl)-4-(3-(4-methoxy-2-oxo-2,5-dihydro-1H-pyrrol-1-yl)-2-methylphenyl)-9H-carbazole-1-carboxamide] |  | 
6 | 1.4 | 23 | CC(=O)NCc1ccc2c(c1)[nH]c1c(C(N)=O)ccc(-c3cccc(-n4cnc5ccc(F)cc5c4=O)c3C)c12 [Example 38-3, 7-(acetamidomethyl)-4-(3-(6-fluoro-4-oxoquinazolin-3(4H)-yl)-2-methylphenyl)-9H-carbazole-1-carboxamide] |  | 
7 | 0.7 | 11 | Cc1c(-c2ccc(C(N)=O)c3[nH]c4cc(C(O)CO)ccc4c23)cccc1-n1cnc2ccc(F)cc2c1=O (stereo not shown) [Example 70-13] |  | 
